Like-named read-outs stand apart in the source and are kept apart here. Peptide text beside a SMILES is read from it. * marks the point of attachment. Cbz = O=C(OCc1ccccc1)*
Legend:
[1] = target: T1, TDP-43 (Mus musculus, UniProt Q921F2); assay: InCell Western (ICW) drug screen for TDP-43 levels in N9 cells; assay type: cell-based; details: for % TDP43 level: N9 cells treated 24 hours, DMSO vehicle control = 100
T1 construct: N9 cells expressing endogenous TDP-43 were treated with various concentrations of B10; endogenous in cells; host or cells: N9 mouse microglial cells
T1 sequence (Q921F2 whole entry): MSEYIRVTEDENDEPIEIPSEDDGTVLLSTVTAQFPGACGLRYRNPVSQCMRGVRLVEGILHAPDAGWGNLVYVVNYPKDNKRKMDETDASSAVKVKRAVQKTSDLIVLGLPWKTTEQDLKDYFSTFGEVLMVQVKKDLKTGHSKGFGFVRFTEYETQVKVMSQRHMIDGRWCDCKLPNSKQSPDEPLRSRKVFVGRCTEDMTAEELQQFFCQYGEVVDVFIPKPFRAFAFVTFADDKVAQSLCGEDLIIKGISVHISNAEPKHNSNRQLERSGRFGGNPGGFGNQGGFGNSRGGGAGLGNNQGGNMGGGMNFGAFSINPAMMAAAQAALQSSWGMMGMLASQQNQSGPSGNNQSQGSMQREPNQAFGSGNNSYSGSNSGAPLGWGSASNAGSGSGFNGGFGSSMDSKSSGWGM
Protocol: To optimize the ICW technique for screening TDP-43 targeting drugs, N9 cells were seeded in a 96-well plate and processed for ICW by using various dilution of TDP-43 antibody.
For drug screening, N9 cells were treated with a panel of candidate drug molecules for 24 hours and the effect on TDP-43 levels was analyzed using the InCell Western assay.
To optimize TDP-43 targeting ICW, N9 cells were seeded in a 96-well plate and probed with different dilutions of TDP-43 antibody as previously described (Jinwal and Dickey, 2011). For the identification of candidate drug molecules, N9 cells were treated with an array of drugs for 24 hours and processed for ICW (Jinwal and Dickey, 2011). In brief, cells were fixed, washed with PBS and incubated in blocking buffer. Cells were then incubated in primary antibody to TDP-43 (1:1000) and GAPDH (1:3000) for overnight. After washing with 0.2% Tween-20 PBS, cells were incubated with fluorescently tagged secondary antibodies for 1 hour and 30 minutes. Fluorescence intensity was then recorded and quantified using the Odyssey Infrared Imaging System (LI-COR). ICW experiments were performed in duplicate.

[2] = test system: rats; details: pre-treatment prior to administration of B10; cited from earlier work
[3] = test system: ubiquitinated proteins; assay: Western blot of ubiquitinated proteins in HEK293 cell samples; assay type: cell-based; details: HEK293 samples from FIG. 4A, 24 hours, ubiquitin antibody
Protocol: (§1) HEK293 cells were treated with 3 and 10 μM B10 for 24 hours. An equivalent volume of DMSO was used for control treatments. […] Briefly, cells were lysed in Mammalian-Protein Extraction Reagent (M-PER; Pierce, Rockford, Ill.) containing 1× protease inhibitor mixture (Calbiochem, Billerica, Mass.), 1 mM phenylmethylsulfonyl fluoride (PMSF) and 1× phosphatase inhibitor I and II cocktails (Sigma). Protein concentration was determined using the Coomassie (Bradford) Protein Assay Kit (Pierce). Samples were analyzed using TDP-43, FUS, and GAPDH antibodies by Western blotting. Drug treatment experiments were performed in triplicate. For ubiquitinated protein analysis upon MG132 treatment, ubiquitin antibody (Santa Cruz Biotechnology) was used. Statistical analysis was performed using Microsoft Excel.

[4] = target: T2, endogenous TDP-43 (Mus musculus, UniProt Q921F2); assay: Western blotting of endogenous TDP-43 in N9 cells, dose response; assay type: cell-based; details: 3 μM, 24 hours, Western blot
T2 construct: N9 cells expressing endogenous TDP-43 were treated with various concentrations of B10; endogenous in cells; host or cells: N9 mouse microglial cells
T2 sequence (Q921F2 whole entry): as above
Protocol: N9 cells were treated with different concentration of B10 for 24 hours and levels of endogenous TDP-43 were determined by Western blotting.
For dose response experiments, N9 cells were treated with different concentrations of B10 for 24 hours. […] An equivalent volume of DMSO was used for control treatments for both sets of experiments. […] Briefly, cells were lysed in Mammalian-Protein Extraction Reagent (M-PER; Pierce, Rockford, Ill.) containing 1× protease inhibitor mixture (Calbiochem, Billerica, Mass.), 1 mM phenylmethylsulfonyl fluoride (PMSF) and 1× phosphatase inhibitor I and II cocktails (Sigma). Protein concentration was determined using the Coomassie (Bradford) Protein Assay Kit (Pierce). Samples were analyzed for Myc and GAPDH by Western blotting. […] Drug treatment experiments were repeated at least two times.

[5] = test system: Myc-tagged WT TDP-43, C25 mutant, M337V and Q331K; assay: Western blotting of Myc-tagged WT and mutant TDP-43 transfected in HEK293 cells; assay type: cell-based; details: HEK293 cells transfected with Myc-tagged WT, 3 μM, 24 hours
[6] = test system: HEK293 cells; assay type: cell-based; details: human, 24 h
Protocol: (§2) Whether B10 treatment causes cytotoxicity was next tested. The inventors performed the LDH assay with N9 and HEK293 cells. […] B10 causes ˜3% and ˜13% cytotoxicity at 3 and 10 μM in the HEK293 cells, respectively (FIG. 5B).
(§3) The LDH assay was performed using the CytoTox 96 Non-Radioactive Cytotoxicity Assay from Promega as per manufacturer's instructions. Briefly, N9 and HEK cells were treated with different concentrations of hexachlorophene for 24 hours. Cells treated with a lethal dose of 150 μM hexachlorophene were used as the maximal LDH release control. Culture supernatant was collected and centrifuged at 2000 rpm to pellet debris. 50 μl of supernatant from each sample was transferred to a flat-bottom 96 well plate. The Substrate Mix provided in the kit was reconstituted with Assay Buffer. 50 μl of the reconstituted Substrate Mix was added to the culture supernatant. The plate was incubated at room temperature, protected from light, for 30 minutes. 50 μl of Stop Solution was added to each well at the end of the incubation period. Absorbance was read at 490 nm. The experiment was performed in triplicate for each cell line. Statistical analysis was performed using Microsoft Excel.

[7] = test system: N9 cells; assay type: cell-based; details: mouse, 24 h
Protocol: as §2, §3

[8] = target: T3, endogenous TDP-43 (Homo sapiens, UniProt Q13148); assay: Western blotting of endogenous TDP-43 in HEK293 cells; assay type: cell-based; details: endogenous TDP-43, 3 μM, 24 hours, Western blot
T3 construct: HEK293 cells expressing endogenous TDP-43 and FUS; endogenous in cells; host or cells: HEK293
T3 sequence (Q13148 whole entry): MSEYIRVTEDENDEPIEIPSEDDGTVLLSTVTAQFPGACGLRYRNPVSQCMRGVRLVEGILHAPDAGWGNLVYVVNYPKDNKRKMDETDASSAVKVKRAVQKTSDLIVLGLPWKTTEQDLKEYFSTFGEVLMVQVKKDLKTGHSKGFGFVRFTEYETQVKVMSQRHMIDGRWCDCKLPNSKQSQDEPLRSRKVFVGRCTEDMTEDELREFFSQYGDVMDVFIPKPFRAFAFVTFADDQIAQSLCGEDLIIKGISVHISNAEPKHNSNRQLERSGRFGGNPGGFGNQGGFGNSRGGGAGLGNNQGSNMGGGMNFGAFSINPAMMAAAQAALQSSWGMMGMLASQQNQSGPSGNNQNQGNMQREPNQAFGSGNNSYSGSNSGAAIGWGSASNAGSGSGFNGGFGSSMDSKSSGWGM
Protocol: as §1

[9] = test system: FUS (Fused in Sarcoma); assay: Western blotting of endogenous FUS in HEK293 cells; assay type: cell-based
Protocol: as §1

[10] = target: T4, C25 mutant of TDP-43 (Homo sapiens, UniProt Q13148); assay: Immunofluorescence of cytoplasmic C25 mutant TDP-43 in HEK293 cells; assay type: cell-based; details: 3 μM, 24 hours
T4 construct: the C25 cleaved fragment that localizes to the cytosol; expressed in transfected cells; host or cells: HEK293
T4 sequence (Q13148 219-414 limits assumed, change not shown): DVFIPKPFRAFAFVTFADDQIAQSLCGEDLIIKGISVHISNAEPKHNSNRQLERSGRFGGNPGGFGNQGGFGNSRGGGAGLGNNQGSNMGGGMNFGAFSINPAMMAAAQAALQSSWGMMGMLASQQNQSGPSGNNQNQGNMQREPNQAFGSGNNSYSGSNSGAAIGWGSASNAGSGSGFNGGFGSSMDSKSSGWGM
Protocol: 24 hours after transfection, the medium was replaced and cells were treated with either DMSO or 3 μM B10 for 24 hours. […] Following three washes in PBS, cells were incubated in blocking buffer (1% BSA, 0.1% Tween-20 in PBS) for one hour. A mouse monoclonal antibody to the Myc tag at a dilution of 1:400 was applied for 1 hour. After three washes in PBS, cells were incubated with an Alexa488 tagged goat anti-mouse IgG secondary antibody at 1:800 for 1 hour. […] Coverslips were mounted on slides using Fluoromount G. Imaging was performed with a Zeiss AxioVision imager.

[11] = test system: C25-TDP-43 transgenic C. elegans; assay: Liquid thrashing motility assay in C25-TDP-43 transgenic C. elegans; assay type: in vivo; details: C25 worms on NGM plates containing 5 μM or 10 μM B10
Protocol: (§4) For in vivo studies the inventors used a C. elegans model expressing the C25 fragment to analyze changes in behavior and pathological TDP-43 upon B10 treatment.
(§5) The Solid Method of drug dosing was used in which age-synchronized C. elegans eggs were plated on Nematode Growth Media (NGM) plates containing DMSO vehicle or 5 μM B10 or 10 μM B10.
(§6) A behavioral assay that measures liquid thrashing ability was used to analyze the effect of B10 treatment on motility in age synchronized C25 animals. For microscopic analysis adult worms were fixed on slide and imaged using fluorescence microscopy.

[12] = target: T5, C25-TDP-43 (Homo sapiens, UniProt Q13148); assay: Fluorescence microscopy of C25-TDP-43 aggregates in head neurons of transgenic C. elegans; assay type: in vivo; details: C25 worms
T5 construct: a C. elegans model expressing the C25 fragment; expressed in transfected cells; host or cells: transgenic C. elegans (neurons)
T5 sequence (Q13148 219-414 limits assumed): as the sequence (Q13148 219-414 limits assumed, change not shown) above
Protocol: as §4, §5, §6

[13] = dose of about 10 mg/kg, transgenic TDP43 mouse model; cited from earlier work
[14] = test system: Wnt-β-catenin signaling pathway; details: B lymphoma cells; cited from earlier work
[15] = target: T6, amyloid beta (Aβ) (Homo sapiens, UniProt P05067); details: cited from earlier work
T6 construct: the amyloid protein (Aβ) which is a proteolytic product of a precursor protein of much larger size
T6 sequence (P05067 672-713 limits assumed): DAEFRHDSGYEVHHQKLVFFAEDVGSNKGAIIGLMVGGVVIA

[16] = test system: primary neuronal cultures; details: cited from earlier work

Nc1ccc(S(=O)(=O)c2ccc(N)cc2)cc1 [B7, Dapsone]
% TDP43 level [1]: 100%

C[N+](C)(C)C[C@H](O)CC(=O)[O-] [L-carnitine]
protection from toxicity induced by B10 [2]: protected rats from the toxicity of B10

OCCN1CCN(CCCN2c3ccccc3Sc3ccc(Cl)cc32)CC1 [B5, Perphenazine]
% TDP43 level [1]: 85%

CCCC(C(=O)OCCN(CC)CC)(c1ccccc1)c1ccccc1.Cl [SKF-525A, 2-diethylaminoethyl-2,2-diphenylvalerate-Hcl]
protection from toxicity induced by B10 [2]: lessened toxicity

CC(C)C[C@@H](C=O)NC(=O)[C@H](CC(C)C)NC(=O)[C@H](CC(C)C)NC(=O)OCc1ccccc1 [MG132] (Cbz-Leu-Leu-Leu-aldehyde)
levels of ubiquitinated proteins [3]: increase in ubiquitinated proteins

CCOc1ccc2c(c1)C(C)=CC(C)(C)N2 [ethoxyquin]
protection from toxicity induced by B10 [2]: protects rats from toxicity induced by B10

Oc1c(Cl)cc(Cl)c(Cl)c1Cc1c(O)c(Cl)cc(Cl)c1Cl [B10, Hexachlorophene]
% TDP43 level [1]: 63%
decrease in levels of TDP-43 compared to the control ([1]; N9 cells, 24 hours): ~40%
reduction of endogenous TDP-43 levels [4]: approximately 50%
decrease in levels of TDP-43 and its mutants [5]: approximately 50%
cytotoxicity (LDH release) ([6]; 3 μM): ~3%
cytotoxicity (LDH release) ([6]; 10 μM): ~13%
cytotoxicity (LDH release) ([7]; 3 μM): ~6%
cytotoxicity (LDH release) ([7]; 10 μM): ~23%
reduction of TDP-43 levels [8]: ~50%
effect on levels of FUS [9]: increases levels of FUS
increase of FUS levels ([9]; 3 μM, 24 hours, Western blot): ~300%
amount of cytoplasmic C25 mutant TDP-43 [10]: decreases the amount of cytoplasmic C25 mutant TDP-43
levels of ubiquitinated proteins [3]: slight increase in ubiquitinated proteins
motility (liquid thrashing) [11]: improved motility of C25 worms
accumulation of TDP-43 in neurons in the head region [12]: decreased the accumulation of TDP-43 in the neurons in the head region of C25 worms
brain permeability [13]: 50%
effect on Wnt-β-catenin signaling pathway [14]: inhibit the Wnt-β-catenin signaling pathway in B lymphoma cells
effect on Aβ fibril formation [15]: inhibit amyloid beta (Aβ) fibril formation
protection from Aβ-induced toxicity [16]: protect primary neuronal cultures from Aβ-induced toxicity

CO[C@H]1/C=C/O[C@@]2(C)Oc3c(C)c(O)c4c(O)c(c(/C=N/N5CCN(C)CC5)c(O)c4c3C2=O)NC(=O)/C(C)=C\C=C\[C@H](C)[C@H](O)[C@@H](C)[C@@H](O)[C@@H](C)[C@H](OC(C)=O)[C@@H]1C [B6, Rifampicin]
% TDP43 level [1]: 103%

NS(=O)(=O)c1cc2c(cc1C(F)(F)F)NCNS2(=O)=O [B8, Hydroflumethiazide]
% TDP43 level [1]: 89%

Reference: patent publication US9844519B1, “Method of treating TDP-43 proteinopathies using hexachlorophene” (University of South Florida, priority 2014, dated 2017)
